Entries after “also recorded” stand apart in the source; their conditions may differ. Where a SMILES comes first, the peptide text is derived from it. [ ]: non-standard residue; d: D form. The star is where a group is joined. Hexanoyl = CCCCCC(=O)*; Ahx = NCCCCCC(=O)O
Key:
hippocampal neurons [1] = experiment: Whole-cell recordings of mEPSCs in dissociated hippocampal neurons; type: cell-based, rat; settings: 10^−12 M, 5 days
c-Met = experiment: Augmentation of HGF-dependent c-Met phosphorylation in HEK293 cells; type: cell-based, human; settings: HEK 293 cells, HGF+/−Dihexa, 30 minutes
Experimental: HGF mimetic activity was typically assessed by one or both of two methods: augmentation of HGF-dependent c-Met phosphorylation in HEK293 cells, or 2) augmentation of HGF-dependent cell scattering in MDCK cells. All the compounds in Family one were tested using the c-Met phosphorylation assay. […]
Human embryonic kidney cells 293 (HEK293), Madin Darby canine kidney cells (MDCK), and B16F10 murine melanoma cells were grown in DMEM, 10% fetal bovine serum (FBS). Cells were grown to 90-100% confluency before use. For most but not all studies HEK and MDCK cells were serum starved for 24 hours prior to the initiation of drug treatment.
HEK293 cells were seeded in 6 well tissue culture plates and grown to 95% confluency in DMEM containing 10% FBS. […] The lysate was clarified by centrifugation at 15,000 g for 15 minutes, protein concentrations were determined using the BCA total protein assay, and then appropriate volumes of the lysates were diluted with 2× reducing Laemmli buffer and heated for ten minutes at 95° C. […] Proteins were visualized using the Supersignal West Pico Chemiluminescent Substrate system (Pierce, Fenton, Mo.) and molecular weights determined by comparison to protein ladders (BenchMark, Invitrogen; and Kaleidoscope, BioRad). Images were digitized and analyzed using a UVP phosphoimager.

[2] = Blood stability in heparinized rat blood; type: in vitro ADME; settings: rat
Experimental: At the end of each incubation, 20 μL of […]

human HGF = target: T1, human HGF (Homo sapiens, UniProt P14210); experiment: HGF dimerization (PAGE, silver staining); type: biochemical; settings: 30 minutes, heparin
T1 construct: purchased R&D Systems (Minneapolis, Minn.)
T1 sequence (P14210 32-728): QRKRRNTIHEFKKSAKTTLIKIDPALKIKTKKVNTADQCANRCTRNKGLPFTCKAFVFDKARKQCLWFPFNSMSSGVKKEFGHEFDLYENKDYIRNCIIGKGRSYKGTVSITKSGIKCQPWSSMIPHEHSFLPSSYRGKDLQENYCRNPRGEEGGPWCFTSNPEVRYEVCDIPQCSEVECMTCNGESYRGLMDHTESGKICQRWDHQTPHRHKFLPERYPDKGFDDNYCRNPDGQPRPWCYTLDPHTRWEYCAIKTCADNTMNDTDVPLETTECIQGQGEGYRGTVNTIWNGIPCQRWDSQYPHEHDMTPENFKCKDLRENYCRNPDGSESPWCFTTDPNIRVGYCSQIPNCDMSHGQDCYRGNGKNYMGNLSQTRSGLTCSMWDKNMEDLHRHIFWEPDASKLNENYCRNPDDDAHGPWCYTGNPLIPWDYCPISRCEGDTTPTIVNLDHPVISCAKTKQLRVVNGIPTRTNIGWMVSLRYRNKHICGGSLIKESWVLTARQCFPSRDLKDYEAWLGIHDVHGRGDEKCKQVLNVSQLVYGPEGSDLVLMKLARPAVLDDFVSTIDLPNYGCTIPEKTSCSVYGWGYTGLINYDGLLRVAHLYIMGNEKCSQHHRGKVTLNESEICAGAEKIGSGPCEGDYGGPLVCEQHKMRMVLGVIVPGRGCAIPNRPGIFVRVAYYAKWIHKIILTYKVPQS
Experimental: HGF dimerization was assessed using PAGE followed by silver staining (Kawas et al., 2011). Human HGF at a concentration of 0.08 ng/μl with or without 6-AH analogs was incubated with heparin at a final concentration of 5 μg/ml. Loading buffer was then added to each sample and the mixture separated by native PAGE using gradient Criterion XT precast gels (4-12% Bis-Tris; Biorad Laboratories, Hercules, Calif.). Next the gel was silver stained for the detection of the HGF monomers and dimers. Bands were quantitated from digital images using a UVP phosphoimager (Upland, Calif.).

[3] = Blood-brain barrier penetrability study; type: in vivo, rat; settings: carotid infusion, 30 minutes
Experimental: To evaluate the of ability dihexa to penetrate the BBB and accumulate in the brain rats were fitted with carotid cannulas and infused with 10 μCi of ^3H-dihexa and 2 μCi of ^14C inulin, a vascular space marker, in 100 μL of isotonic saline. Thirty minutes after infusion, brains were removed and dissected and blood samples taken. After solubilization, ^3H and ^14C were quantified by dual window scintillation counting to determine the amount of dihexa and inulin in brain and blood samples. The ratio of dihexa/inulin in blood was then used to account for any blood contamination in the various brain regions.

hippocampal neurons [4] = experiment: Growth factor deprivation of dissociated hippocampal neurons; type: cell-based; settings: starved 72 hrs +/− HGF 5 ng/ml and/or Dihexa
Experimental: FIG. 46. […] Dissociated hippocampal neurons were starved for 72 hrs+/−HGF at sub-threshold concentrations 5 ng/ml and or Dihexa at 2 different concentrations 10^−8M and […]. (**p<0.001,*** p<0.0001; Mean+/−SEM).

in vitro = settings: male, rat, microsomes, pH 7.38

## CCCCCC(=O)N[C@@H](Cc1ccc(O)cc1)C(=O)N[C@H](C(=O)NCCCCCC(N)=O)[C@@H](C)CC [Dihexa, N-hexanoic-Tyr-Ile-(6)-aminohexanoic amide] (Hexanoyl-Tyr-Ile-[Ahx]-NH2)
Hippocampal neurons [1]
  frequency of AMPA-mediated mEPSCs: 4.82±0.34 Hz
  increase in mEPSC frequency over control: 1.6 fold
c-Met
  augmentation of HGF activation (phosphorylation) of c-Met: dramatically augment the ability of HGF to activate c-Met; also recorded: markedly augments the ability of HGF to signal to c-Met; also recorded: work synergistically to activate c-Met
[2]
  stable in the blood: over 5 hours
Human HGF
  HGF dimerization in the presence of Dihexa: blocking HGF dimerization; also recorded: blocks HGF dimerization
[3]
  average 3H/14C for blood: 1687
[3]; 14C-inulin vascular marker
  concentration of 3H-dihexa in brain regions (3H/14C ratio vs blood): all the brain regions examined avidly concentrated dihexa
Hippocampal neurons [4]
  protection of neurons from growth factor deprivation: act synergistically to protect neurons; also recorded: protects neurons from growth factor deprivation
In vitro
  half-life at 5 µM: 8.49 h
  microsomal CLint at 5 µM: 2.72 µL/min/mg
